Data on one substance can be found in US20220280548A1, “COMBINATION THERAPY FOR SPINAL MUSCULAR ATROPHY” (Biogen MA Inc., priority 2019, published 2022).

This series relates to neonatal (P0-P1) SMA mice having a human SMN2 transgene. Kind of series: Body weight and righting reflex in neonatal SMA mice given nusinersen and/or AAV-SMN1 (Example 9). It is filed as in vivo. Conditions: monotherapy, single dose. How it is done: Nusinersen and AAV-SMN1 were administered to neonatal (P0-P1) SMA mice having a human SMN2 transgene. A low or high dose of nusinersen (1 μg and 3 μg respectively) was administered to the mice along with a low or high dose of AAV-SMN1 (1×10^10 GC or 3×10^10 GC respectively) at birth (P0-P1). The mice body weight and righting reflex were measured and compared to the body weight and righting reflex of control mice of the same genotype having received either nusinersen or AAV-SMN1 alone.
[…]

Entries after “also recorded” stand apart in the source; their conditions may differ.

Regarding “nusinersen (antisense UCACUUUCAUAAUGCUGG; 2'-O-MOE, phosphorothioate, chemistry not fully specified) [uniformly modified 2′-O-(2-methoxyethyl) phosphorothioate antisense oligonucleotide consisting of 18 nucleotide residues, targets intron 7 of SMN2 pre-mRNA]”, the “rescue of motor function (righting reflex)” value is, setting by setting: (PND 16) “full rescue”; (postnatal day (PND) 8) “partially rescues; also recorded: partial rescue”. Further, the body weight result (relative to WT control) is recorded as “lags behind the WT control”.
